Target: T1, proTNFα convertase enzyme (TACE) (Homo sapiens, UniProt P78536)
T1 construct: a partially purified, isolated enzyme assay, the enzyme being obtained from the membranes of THP-1; endogenous in cells; host or cells: THP-1 cell membranes (partially purified, per Mohler et al. 1994 Nature 370:218-220)
Experiment: Partially purified, isolated enzyme assay for proTNFα convertase (TACE), fluorescent peptide substrate
Assay type: biochemical
Conditions: 10 μM of compound; enzyme from membranes of THP-1
Procedure: Recombinant human proMMP13 may be expressed and purified as described by Knauper et al. [V. Knauper et al., (1996) The Biochemical Journal 271:1544-1550 (1996)]. […] Activity is determined by measuring the fluorescence at λex 328 nm and λem 393 nm. Percent inhibition is calculated as follows: % Inhibition is equal to the [Fluorescenceplus inhibitor−Fluorescencebackgrouud] divided by the [Fluorescenceminus inhibitor−Fluorescencebackground].
The ability of the compounds to inhibit proTNFα convertase enzyme (TACE) may be assessed using a partially purified, isolated enzyme assay, the enzyme being obtained from the membranes of THP-1 as described by K. M. Mohler et al., (1994) Nature 370:218-220. The purified enzyme activity and inhibition thereof is determined by incubating the partially purified enzyme in the presence or absence of test compounds using the substrate 4′,5′-Dimethoxy-fluoresceinyl Ser.Pro.Leu.Ala.Gln.Ala.Val.Arg.Ser.Ser.Ser.Arg.Cys(4-(3-succinimid-1-yl)-fluorescein)-NH2 in assay buffer (50 mM Tris HCl, pH 7.4 containing 0.1% (w/v) Triton X-100 and 2 mM CaCl2), at 26° C. for 4 hours. The amount of inhibition is determined as for MMP13 except λex 485 nm and λem 538 nm were used. […]

T1 sequence (P78536 215-824): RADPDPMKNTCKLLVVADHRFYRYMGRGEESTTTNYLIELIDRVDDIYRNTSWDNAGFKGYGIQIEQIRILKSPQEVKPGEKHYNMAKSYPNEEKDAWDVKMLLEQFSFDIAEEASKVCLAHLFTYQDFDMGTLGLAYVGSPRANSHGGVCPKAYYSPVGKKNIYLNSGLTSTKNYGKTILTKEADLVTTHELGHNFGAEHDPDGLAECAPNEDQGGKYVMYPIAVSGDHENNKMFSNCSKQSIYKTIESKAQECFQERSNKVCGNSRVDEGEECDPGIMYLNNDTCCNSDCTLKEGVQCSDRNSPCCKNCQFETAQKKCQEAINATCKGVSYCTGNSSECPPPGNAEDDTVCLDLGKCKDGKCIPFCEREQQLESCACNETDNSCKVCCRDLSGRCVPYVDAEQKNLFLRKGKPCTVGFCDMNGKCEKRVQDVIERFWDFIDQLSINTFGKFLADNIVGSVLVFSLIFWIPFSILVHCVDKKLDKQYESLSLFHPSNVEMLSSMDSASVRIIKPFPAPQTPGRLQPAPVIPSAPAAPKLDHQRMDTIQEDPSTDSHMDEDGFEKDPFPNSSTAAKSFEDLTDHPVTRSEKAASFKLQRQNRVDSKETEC

CC#CCOC1CCN(S(=O)(=O)CC(CCCc2ncccn2)N(O)C=O)CC1 (racemic) [compound 1, (R/S)-1-({[4-(But-2-ynyloxy)piperidin-1-yl]sulphonyl}methyl)-4-pyrimidin-2-ylbutyl(hydroxy)formamide]
inhibition at 10 µM: 72%
